In PubChem BioAssay AID248 (DTP/NCI, 2004):
Where “and” joins values, the source holds several entries; their conditions need not be identical. Equal entries are not always repeated. Toxic doses and inconclusive results are not listed. Cut-off read from the data, not from the text of the source: active = T/C of 150% or more; inactive = T/C below 125%.

System: L1210 leukemia ip in BDF1 mice, survival T/C
Experiment: NCI In Vivo Anticancer Drug Screen. Data for tumor model L1210 Leukemia (intraperitoneal) in B6D2F1 (BDF1) mice
Conditions: endpoint: mean survival time, higher = longer survival
Outline: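 Tumor was transplanted into mice, which were then dosed with test compound or vehicle alone. Survival was recorded for each group, and the treated figure was expressed relative to the control figure.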

[1] = dose: 12.5 mg/kg/injection, schedule: Q04DX002 (ip), vehicle: Klucel (hydroxypropylcellulose) (HPC)
[2] = dose: 25.0 mg/kg/injection, schedule: Q04DX002 (ip), vehicle: Klucel (hydroxypropylcellulose) (HPC)
[3] = dose: 100.0 mg/kg/injection, schedule: Q04DX003 (ip), vehicle: saline
[4] = dose: 200.0 mg/kg/injection, schedule: Q04DX003 (ip), vehicle: saline
[5] = dose: 25.0 mg/kg/injection, schedule: Q01DX009 (ip), vehicle: saline with Tween-80
[6] = dose: 100.0 mg/kg/injection, schedule: Q01DX009 (ip), vehicle: saline with Tween-80
[7] = dose: 200.0 mg/kg/injection, schedule: Q01DX009 (ip), vehicle: saline with Tween-80
[8] = dose: 400.0 mg/kg/injection, schedule: Q04DX003 (ip), vehicle: saline
[9] = dose: 50.0 mg/kg/injection, schedule: Q01DX009 (ip), vehicle: saline with Tween-80
[10] = dose: 50.0 mg/kg/injection, schedule: Q01DX001 (ip), vehicle: saline
[11] = dose: 100.0 mg/kg/injection, schedule: Q01DX001 (ip), vehicle: saline
[12] = dose: 200.0 mg/kg/injection, schedule: Q01DX001 (ip), vehicle: saline
[13] = dose: 400.0 mg/kg/injection, schedule: Q01DX001 (ip), vehicle: saline
[14] = dose: 6.25 mg/kg/injection, schedule: Q01DX009 (ip), vehicle: saline
[15] = dose: 12.5 mg/kg/injection, schedule: Q01DX009 (ip), vehicle: saline
[16] = dose: 25.0 mg/kg/injection, schedule: Q04DX003 (ip), vehicle: saline
[17] = dose: 50.0 mg/kg/injection, schedule: Q01DX001 (ip), vehicle: carboxymethylcellulose (CMC)
[18] = dose: 100.0 mg/kg/injection, schedule: Q01DX001 (ip), vehicle: carboxymethylcellulose (CMC)
[19] = dose: 200.0 mg/kg/injection, schedule: Q01DX001 (ip), vehicle: carboxymethylcellulose (CMC)
[20] = dose: 400.0 mg/kg/injection, schedule: Q01DX001 (ip), vehicle: carboxymethylcellulose (CMC)
[21] = dose: 100.0 mg/kg/injection, schedule: Q04DX003 (ip), vehicle: saline with Tween-80
[22] = dose: 100.0 mg/kg/injection, schedule: Q01DX009 (ip), vehicle: Klucel (hydroxypropylcellulose) (HPC)
[23] = dose: 200.0 mg/kg/injection, schedule: Q01DX009 (ip), vehicle: Klucel (hydroxypropylcellulose) (HPC)
[24] = dose: 400.0 mg/kg/injection, schedule: Q01DX009 (ip), vehicle: Klucel (hydroxypropylcellulose) (HPC)

Measured: T/C

Cc1nc(N)nc(Nc2ccc(CCO)cc2)c1Br
inactive: dose: 100.0 mg/kg/injection, schedule: Q01DX Z (ip), vehicle: methylcellulose (MC) 103 % of control | dose: 200.0 mg/kg/injection, schedule: Q01DX Z (ip), vehicle: methylcellulose (MC) 98 % of control

CC(C)(C)C1CCC(N=C(N)CSS(=O)(=O)O)CC1 (configuration not stated)
inactive: [1] 97 % of control | [2] 95 % of control

CCCC1([N+]2(C)CCCC2)CS(=O)C1CC (configuration not stated)
inactive: [3] 98 % of control | [4] 93 % of control

CC(C)c1ccccc1OS(=O)(=O)c1c(F)c(F)c(F)c(F)c1F
inactive: dose: 6.25 mg/kg/injection, schedule: Q01DX001 (ip), vehicle: Klucel (hydroxypropylcellulose) (HPC) 103 % of control | dose: 6.25 mg/kg/injection, schedule: Q01DX009 (ip), vehicle: saline with Tween-80 108 % of control | dose: 12.5 mg/kg/injection, schedule: Q01DX001 (ip), vehicle: Klucel (hydroxypropylcellulose) (HPC) 97 % of control | dose: 12.5 mg/kg/injection, schedule: Q01DX009 (ip), vehicle: saline with Tween-80 101 % of control | dose: 25.0 mg/kg/injection, schedule: Q01DX001 (ip), vehicle: Klucel (hydroxypropylcellulose) (HPC) 101 % of control | [5] 103 % of control

CCCCCc1c(C(F)(F)F)[nH]c(=O)[nH]c1=O
inactive: dose: 100.0 mg/kg/injection, schedule: Q04DX003 (ip), vehicle: Klucel (hydroxypropylcellulose) (HPC) 90 % of control | dose: 200.0 mg/kg/injection, schedule: Q04DX003 (ip), vehicle: Klucel (hydroxypropylcellulose) (HPC) 101 % of control | dose: 400.0 mg/kg/injection, schedule: Q04DX003 (ip), vehicle: Klucel (hydroxypropylcellulose) (HPC) 111 % of control

Cc1ncc(CO)c(C2NOCc3c(Cl)cc4c(c32)OCO4)c1O (configuration not stated)
inactive: [6] 90 % of control | [7] 95 % of control | dose: 400.0 mg/kg/injection, schedule: Q01DX009 (ip), vehicle: saline with Tween-80 94 % of control

C=CCC(CC)(C(=O)OCC)C(=O)OCC
inactive: dose: 100.0 mg/kg/injection, schedule: Q01DX009 (ip), vehicle: saline 107 % of control | [3] 102 % of control | dose: 200.0 mg/kg/injection, schedule: Q01DX009 (ip), vehicle: saline 98 % of control | [4] 113 % of control | dose: 400.0 mg/kg/injection, schedule: Q01DX009 (ip), vehicle: saline 95 % of control | [8] 96 % of control

N#CC[CH2][Sn]([CH2]CC#N)([CH2]CC#N)[CH2]CC#N
inactive: dose: 100.0 mg/kg/injection, schedule: Q04DX002 (ip), vehicle: saline with Tween-80 100 % of control | dose: 200.0 mg/kg/injection, schedule: Q04DX002 (ip), vehicle: saline with Tween-80 96 % of control | dose: 400.0 mg/kg/injection, schedule: Q04DX002 (ip), vehicle: saline with Tween-80 96 % of control

O=C(Nc1ncc([N+](=O)[O-])s1)c1ccc(Cl)s1
inactive: dose: 6.25 mg/kg/injection, schedule: Q04DX002 (ip), vehicle: Klucel (hydroxypropylcellulose) (HPC) 94 % of control | [1] 91 % of control | [2] 87 % of control

Cc1cc(C(=O)O)ccc1S(=O)(=O)F
inactive: [5] 96 % of control | [9] 102 % of control | [6] 92 % of control and 100 % of control

CC1OC=CC(O)C1O (configuration not stated)
inactive: [10] 94 % of control | [11] 100 % of control | [12] 105 % of control | [13] 97 % of control

NCC1CCCCC1
inactive: [14] 107 % of control | dose: 12.0 mg/kg/injection, schedule: Q04DX003 (ip), vehicle: saline 98 % of control | [15] 105 % of control | dose: 25.0 mg/kg/injection, schedule: Q01DX009 (ip), vehicle: saline 100 % of control | [16] 110 % of control | dose: 50.0 mg/kg/injection, schedule: Q01DX009 (ip), vehicle: saline 88 % of control | dose: 50.0 mg/kg/injection, schedule: Q04DX003 (ip), vehicle: saline 104 % of control

CC(CN=Cc1ccc(N(CCCl)CCCl)cc1)N=Cc1ccc(N(CCCl)CCCl)cc1 (configuration not stated)
inactive: [17] 109 % of control | [18] 111 % of control | [19] 109 % of control | [20] 111 % of control

CCCCCCc1cc(CN(C2CCCCC2)C2CCCCC2)c(O)cc1O
inactive: [11] 92 % of control | [13] 87 % of control

CCN(CC)CCCN1C(=O)c2ccccc2S1(=O)=O
inactive: dose: 44.0 mg/kg/injection, schedule: Q01DX Z (ip), vehicle: saline 102 % of control | dose: 66.0 mg/kg/injection, schedule: Q01DX Z (ip), vehicle: saline 102 % of control | dose: 100.0 mg/kg/injection, schedule: Q01DX Z (ip), vehicle: saline 108 % of control

COc1cccc(OC)c1C1(O)c2ccccc2-c2ccccc21
inactive: [21] 98 % of control | dose: 200.0 mg/kg/injection, schedule: Q04DX003 (ip), vehicle: saline with Tween-80 95 % of control | dose: 400.0 mg/kg/injection, schedule: Q04DX003 (ip), vehicle: saline with Tween-80 95 % of control

Nc1cc(N)cc([N+](=O)[O-])c1
inactive: dose: 3.12 mg/kg/injection, schedule: Q01DX009 (ip), vehicle: saline 103 % of control | [14] 103 % of control | dose: 6.25 mg/kg/injection, schedule: Q04DX003 (ip), vehicle: saline 101 % of control | [15] 95 % of control | dose: 12.5 mg/kg/injection, schedule: Q04DX003 (ip), vehicle: saline 101 % of control | [16] 101 % of control | [17] 113 % of control | [18] 109 % of control | [19] 107 % of control | [20] 109 % of control

CC(C)(C)N(Cc1ccccc1)C(=O)Nc1ccccc1
inactive: [22] 97 % of control | [23] 110 % of control | [24] 103 % of control

O=[N+]([O-])c1ccc(/C=C/c2ccc(S(=O)(=O)F)cc2Cl)c(Cl)c1
inactive: dose: 100.0 mg/kg/injection, schedule: Q01DX001 (ip), vehicle: Klucel (hydroxypropylcellulose) (HPC) 97 % of control | dose: 200.0 mg/kg/injection, schedule: Q01DX001 (ip), vehicle: Klucel (hydroxypropylcellulose) (HPC) 87 % of control | dose: 400.0 mg/kg/injection, schedule: Q01DX001 (ip), vehicle: Klucel (hydroxypropylcellulose) (HPC) 93 % of control

COS(=O)(=O)c1ccc([N+](=O)[O-])cc1[N+](=O)[O-]
inactive: [11] 100 % of control | [12] 94 % of control | [13] 91 % of control

CC(C)(N)CO
inactive: [10] 104 % of control | [11] 101 % of control | dose: 100.0 mg/kg/injection, schedule: Q04DX002 (ip), vehicle: saline 100 % of control | [3] 106 % of control | [12] 104 % of control | dose: 200.0 mg/kg/injection, schedule: Q04DX002 (ip), vehicle: saline 110 % of control | [4] 106 % of control | [13] 101 % of control | dose: 400.0 mg/kg/injection, schedule: Q04DX002 (ip), vehicle: saline 100 % of control | [8] 105 % of control

Cc1ccc(N2C(=O)ON(c3ccccc3)C2c2ccccc2)cc1 (configuration not stated)
inactive: [10] 100 % of control | [11] 102 % of control | [12] 106 % of control | [13] 108 % of control

CC1(c2cccs2)NC(=O)N(Cl)C1=O (configuration not stated)
inactive: [5] 93 % of control | dose: 25.0 mg/kg/injection, schedule: Q04DX003 (ip), vehicle: saline with Tween-80 99 % of control | [9] 96 % of control | dose: 50.0 mg/kg/injection, schedule: Q04DX003 (ip), vehicle: saline with Tween-80 99 % of control | [6] 105 % of control | [21] 100 % of control and 91 % of control | [7] 94 % of control

CCCCC(CCCC)(C(N)=O)C(=O)OCC
inactive: [22] 105 % of control | [23] 100 % of control | [24] 94 % of control

C=CCOC(=O)Nc1ccc(S(=O)(=O)CC)cc1
inactive: [18] 94 % of control | [19] 102 % of control | [20] 91 % of control
